Structures are written as SMILES. Like-named read-outs stand apart in the source and are kept apart here.

Data set [1] has as its target T1, human MRGPR X2 (Homo sapiens, UniProt Q96LB1).
T1 construct: expressed in transfected cells
T1 sequence (Q96LB1 1-330): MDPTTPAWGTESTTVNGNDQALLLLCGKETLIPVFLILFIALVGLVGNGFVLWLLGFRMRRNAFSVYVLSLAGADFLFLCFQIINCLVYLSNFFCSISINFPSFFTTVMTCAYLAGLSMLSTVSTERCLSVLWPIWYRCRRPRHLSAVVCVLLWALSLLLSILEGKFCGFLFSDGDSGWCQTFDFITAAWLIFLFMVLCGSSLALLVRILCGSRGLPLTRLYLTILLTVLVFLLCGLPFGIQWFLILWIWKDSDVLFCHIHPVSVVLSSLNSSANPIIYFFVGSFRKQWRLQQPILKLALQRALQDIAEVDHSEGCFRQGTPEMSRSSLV
Put plainly: MRGPR X2 activity, IP-One Gq HTRF antagonist assay versus 0.3 μM Cortistatin-14. The format is cell-based. The note with it: CHO cells expressing human MRGPR X2; versus 0.3 μM Cortistatin-14 agonist; IP-1 HTRF; read-out: MRGPRX2 Antagonist Activity. The method, then: CHO cells stably transfected to express human MRGPR X2 were maintained in an incubator at 37° C. with 5% CO2 and grown in F12 (HAM) media with 10% fetal bovine serum (FBS), 1% Glutamax, 1% penicillin/streptomycin, 800 μg/mL Geneticin (G418), and 300 μg/mL Hygromycin B.
Cells were plated in a 384-well assay plate at 20,000 cells per well in 12 μL of Opti-MEM and kept in an incubator overnight. On the day of the assay, compounds solubilized at 10 mM in DMSO were added as a 10-point curve (30 μM final top concentration with 1:3 serial dilutions) using a Tecan D300E digital dispenser. Agonists were diluted in assay buffer (final concentrations of 5.7 mM Tris-HCl, 43 mM NaCl, 50 mM LiCl, pH=8) and 2 μL of the agonist Cortistatin-14 (CPC Scientific, catalog CORT-002) are added to each well. Final concentrations of agonists were 0.3 μM Cortistatin. Final concentrations of DMSO were kept consistent across the plate. Plates were incubated in the dark for 1 h at 37° C. and then for 1 h at room temperature. IP-1 standards and HTRF detection reagents were added according to the IP-One—Gq Kit purchased from Cisbio (part number 62IPAPEJ) and incubated in the dark for 1 h at room temperature. The plate was read on a Molecular Devices SpectraMax iD5 plate reader. The HTRF ratio was calculated from the raw data and graphed using GraphPad Prism to calculate an IC50 value for each compound.
The activity ranges are denoted as follows: “+++++” denotes antagonist activity<100 nM; “++++” denotes antagonist activity between 100 and 500 nM; “+++” denotes activity between 501 and 1000 nM; “++” denotes activity between 1001 and 2500 nM; and “+” denotes activity>2500 nM
Background: Time-resolved FRET reads energy transfer from a long-lived donor to a nearby acceptor.

Data set [2] relates to Human LAD2 cells. Briefly: Mast Cell Beta-Hexosaminidase Release Assay (500 nM Cortistatin-14). The format is cell-based. The note with it: read-out: MRGPRX2 Antagonist Activity. The method, then:
Human LAD2 cells (NIH) were maintained in an incubator at 37° C. with 5% CO2 and cultured in StemPro-34 serum-free media (Gibco 10639011) supplemented with 2 mM L-glutamine, 100 U/ml penicillin, […] streptomycin and 100 ng/ml SCF (Invitrogen PEP0860), at a concentration of 2-5×10^5 cells/mL, with hemidepletion every 1-2 weeks.
Cells were transferred to SCF-Free medium at 2.5×10^5 cells/mL and kept in an incubator overnight. On the day of the assay, cells were washed twice in Assay Buffer (final concentrations 10 mM HEPES, 137 mM NaCl, 5.6 mM D-glucose, 2.7 mM KCl, 1 mM MgCl, 1.8 mM CalCl2, 0.4 mM Na2HPO4·7H2O, 0.04% BSA, pH=7.4) and plated in a 96-well v-bottom plate at 20,000 cells per well in 80 μL Assay Buffer. […] After incubation, 50 μL of 400 mM Glycine buffer (pH 10.7) was added into each well and the plate was read on a Molecular Devices SpectraMax iD5 plate reader (absorbance at 405 nm with reference filter at 620 nm). After background subtraction, the percentage degranulation (percent beta-hexosaminidase release) was calculated as 100×(supernatant values)/(supernatant+lysate values), followed by analysis using GraphPad Prism software to calculate an IC50 value for each compound. […]

The nature of data set [3]: Mouse Pharmacokinetics Studies. The format is in vivo. The note with it: plasma, male C57BL/6 mice, 50 mg/kg oral gavage, non-fasted; for AUC(0-t): male, C57BL/6, mouse, po, 50 mg/kg. On the procedure: Compounds were formulated in 5% DMSO, 5% Solutol, and 90% PBS without Ca and Mg (pH 7.4) at a concentration of 5 mg/mL. Male C57BL/6 mice (n=3/compound) were administered a 50 mg/kg dose of each compound by oral gavage under a non-fasted condition. Blood samples were collected via the saphenous vein onto K2-EDTA at 0.25, 0.5, 1, 2, 4, 8 and 24 hours after dosing, and plasma was prepared and stored at −80° C. until analysis. Plasma sample preparation for analysis was done by protein precipitation using acetonitrile (including Verapamil as an internal standard) followed by centrifugation. Compound concentrations were determined in extracted plasma using LC-MS/MS relative to a 12 point standard curve covering the 1 to 4000 nM range. Non-compartmental analysis using Phoenix WinNonlin was used to estimate pharmacokinetic parameters including area under the curve, clearance, and half-life. The administered dose was confirmed by analysis of residual dosing material by UPLC-UV relative to a single point calibration sample.

As for `O=C(N[C@@H]1CCC[C@H](Nc2cc(C(F)(F)F)nc3ccc(Cl)cc23)C1)c1ccsn1` [Example 4-425], the IC50 in data set [1] was less than 100 nM. With `O=C(N[C@@H]1CCC[C@H](Nc2cc(C(F)(F)F)nc3ccc(Cl)cc23)C1)c1cccc(F)c1` [Example 4-239], the IC50 in data set [1] is 100 to 500 nM. On to `CN(C)c1ccc(C(=O)N[C@@H]2CCC[C@H](Nc3cc(C(F)(F)F)nc4ccc(F)cc34)C2)cc1` [Example 4-421], for which the IC50 in data set [1] was less than 100 nM. With `O=C(N[C@@H]1CCC[C@H](Nc2cc(C(F)(F)F)nc3ccccc23)C1)c1ccc(F)cc1` [Example 1-8], in data set [1], the IC50 fell in the range of 100 to 500 nM. In the case of `N#CCCn1ncc(C(=O)N[C@@H]2CCC[C@H](Nc3cc(C(F)(F)F)nc4ccc(Cl)cc34)C2)c1Cl` [Example 4-420], the IC50 in data set [1] and in data set [2] was less than 100 nM each time. In the case of `Cc1nc(N(C)C)ccc1C(=O)N[C@@H]1CCC[C@H](Nc2cc(C(F)(F)F)nc3ccccc23)C1` [Example 4-22], the IC50 in data set [1] was in the range of 1000 to 2500 nM. For the compound `O=C(N[C@@H]1CCC[C@H](Nc2cc(C(F)(F)F)nc3ccccc23)C1)C1(c2cnccn2)CC1` (racemic) [Example 4-29], the IC50 in data set [1] was in the range of 1000 to 2500 nM. For `O=C(N[C@@H]1CCC[C@H](Nc2cc(C(F)(F)F)nc3ccc(Cl)cc23)C1)c1ccc(F)nc1` [Example 4-411], the IC50 in data set [1] was less than 100 nM. Regarding `O=C(N[C@@H]1CCC[C@H](Nc2nc(C(F)(F)F)nc3ccccc23)C1)c1ccc(F)cc1` [Example 3, 4-fluoro-N-[(1R,3S)-3-[[2-(trifluoromethyl)quinazolin-4-yl]amino]cyclohexyl]benzamide], the IC50 in data set [1] lay within 501 to 1000 nM. Still for that read-out and setting: the figure for `Nc1ncc(C(=O)N[C@@H]2CCC[C@H](Nc3cc(C(F)(F)F)nc4ccc(Cl)cc34)C2)cn1` [Example 15, 2-amino-N-[(1R,3S)-3-{[6-chloro-2-(trifluoromethyl)quinolin-4-yl]amino}cyclohexyl]pyrimidine-5-carboxamide] is less than 100 nM; for `CCCc1nnsc1C(=O)N[C@@H]1CCC[C@H](Nc2cc(C(F)(F)F)nc3ccccc23)C1` (racemic) [Example 4-40] it is 1000 to 2500 nM; for `O=C(N[C@@H]1CCC[C@H](Nc2cc(C(F)(F)F)nc3ccc(Cl)cc23)C1)c1ccn(CCF)c1` [Example 19, N-((1R,3S)-3-((6-chloro-2-(trifluoromethyl)quinolin-4-yl)amino)cyclohexyl)-1-(2-fluoroethyl)-1H-pyrrole-3-carboxamide] it is less than 100 nM. Turning to `CN(C)c1ncc(C(=O)N[C@@H]2CCC[C@H](Nc3cc(C(F)(F)F)nc4ccc(Cl)cc34)C2)s1` [Example 4-422], the IC50 in data set [1] is less than 100 nM. Turning to `CC(C)Cc1cc(C(=O)N[C@@H]2CCC[C@H](Nc3cc(C(F)(F)F)nc4ccccc34)C2)n(C)n1` (racemic) [Example 4-90], in data set [1], the IC50 lay within 1000 to 2500 nM. As for `COc1ccc(COc2cc(C(=O)N[C@@H]3CCC[C@H](Nc4cc(C(F)(F)F)nc5ccccc45)C3)on2)cc1` (racemic) [Example 4-35], the IC50 in data set [1] fell in the range of 1000 to 2500 nM. Same read-out and setting: the result for `O=C(N[C@@H]1CCC[C@H](Nc2cc(C(F)(F)F)nc3ccc(Cl)cc23)C1)c1cnc(NCCF)nc1` [Example 4-423] reads less than 100 nM; that for `COc1ccc(C(=O)N[C@@H]2CCC[C@H](Nc3cc(C(F)(F)F)nc4ccc(Cl)cc34)C2)cc1` [Example 1, N-((1R,3S)-3-((6-chloro-2-(trifluoromethyl)quinolin-4-yl)amino)cyclohexyl)-4-methoxybenzamide], less than 100 nM.

The term Cmax denotes the peak of the concentration-time curve. For orientation: Tmax means the time at which the peak concentration occurs. As to `O=C(N[C@@H]1CCC[C@H](Nc2cc(C(F)(F)F)nc3ccc(Cl)cc23)C1)N1CC2(CC2)C1` [Example 6-9], the AUC(0-t) stood at 43 µM·h in data set [3] (read-out: AUC 0-24) and 42 µM·h in data set [3] (read-out: AUC 0-last). In addition, in data set [3] (mouse), the peak level (Cmax) was 5.1 µM. The Tmax in data set [3] (mouse, read-out: PK: Tmax) was 3.3 h.

For `O=C(N[C@@H]1CCC[C@H](Nc2cc(C(F)(F)F)nc3ccc(Cl)cc23)C1)c1cnn(C(F)F)c1` [Example 4-399], in data set [1], the IC50 was less than 100 nM. For `O=C(CN1C(=O)COc2ccccc21)N[C@@H]1CCC[C@H](Nc2cc(C(F)(F)F)nc3ccccc23)C1` (racemic) [Example 4-100], in data set [1], the IC50 is 1000 to 2500 nM. On to `N#CC1(C(=O)N[C@@H]2CCC[C@H](Nc3cc(C(F)(F)F)nc4ccccc34)C2)CC1` [Example 4-183], for which the IC50 in data set [1] was in the range of 1000 to 2500 nM. In the case of `O=C(N[C@@H]1CCC[C@H](Nc2cc(C(F)(F)F)nc3ccccc23)C1)c1cccc(N2CCCC2=O)c1` [Example 4-172], the IC50 in data set [1] fell in the range of 1000 to 2500 nM. Still for that read-out and setting: the result for `CCS(=O)(=O)Nc1cccc(C(=O)N[C@@H]2CCC[C@H](Nc3cc(C(F)(F)F)nc4ccc(Cl)cc34)C2)c1` [Example 4-241] reads less than 100 nM; that for `N#Cc1ccccc1C(=O)N[C@@H]1CCC[C@H](Nc2cc(C(F)(F)F)nc3ccccc23)C1` [Example 3-6], 100 to 500 nM.

Source of the values: patent US12275707B2, “Modulators of mas-related g-protein receptor X2 and related products and methods” (Escient Pharmaceuticals, Inc., priority 2020, dated 2025).
